System: angiotensin II-induced pressor responses
Experiment: Test C: inhibition of angiotensin II-induced pressor responses in terminally-anaesthetised or conscious rats
Format: in vivo
Details: iv, rat, i.v. administration
Source text: The antagonism of one or more of the physiological actions of AII and, in particular, the antagonism of the interaction of AII with the receptors which mediate its effects on a target tissue, may be assessed using one or more of the following, routine laboratory procedures: Test C: This in vivo test involves using terminally-anaesthetised or conscious rats in which an arterial catheter has been implanted under anaesthesia for the measurement of changes in blood pressure. The AII antagonistic effects of the test compound following oral or parenteral administration, are assessed against angiotensin II-induced pressor responses. To ensure that the effect is specific, the effect of the test compound on vasopressin-induced pressor responses may also be determined in the same preparation.

Cc1cc(NCc2ccc(-c3ccccc3-c3nnn[nH]3)cc2)c(I)c(C)n1.Cl [Example 1, 2,6-dimethyl-3-iodo-4-[(2'-(1H-tetrazol-5-yl)biphenyl-4-yl)methylamino]pyridine hydrochloride]
ED50: 0.047 mg/kg

Source: patent publication US5236937A, “Pyridinyl compounds which are useful as angiotensin II antagonists” (Imperial Chemical Industries PLC, priority 1991, dated 1993)
